Test results as given in publication PMC6718736, “Validation of in vitro methods for human cytochrome P450 enzyme induction: Outcome of a multi-laboratory study” (Toxicology in Vitro, 2019).
Like-named read-outs stand apart in the source and are kept apart here.

What was measured:
CYP1A2 [1] = experiment: CYP1A2 enzyme induction assay in cryopreserved HepaRG cells (phenacetin probe, LC/MS); assay type: in vitro ADME, human; conditions: for Prediction in vivo inducer: Cmax/F2 >0.5 criterion; for Assigned classification CYP1A2: HepaRG; as to Assigned classification CYP1A2: key: 1=Positive=inducer; 0=Negative=non-inducer
CYP2B6 [2] = experiment: CYP2B6 enzyme induction assay in cryopreserved HepaRG cells (bupropion probe, LC/MS); assay type: in vitro ADME, human; conditions: for Prediction in vivo inducer: Cmax/F2 >0.5 criterion; for Assigned classification CYP2B6: HepaRG; as to Assigned classification CYP2B6: key: 1=Positive=inducer; 0=Negative=non-inducer
CYP3A4 [3] = experiment: CYP3A4 enzyme induction assay in cryopreserved HepaRG cells (midazolam probe, LC/MS); assay type: in vitro ADME, human; conditions: for Assigned classification CYP3A4: HepaRG; as to Assigned classification CYP3A4: key: 1=Positive=inducer; 0=Negative=non-inducer
CYP1A2 [4] = experiment: CYP1A2 enzyme induction assay in cryopreserved primary human hepatocytes (PHH); assay type: in vitro ADME; conditions: for Prediction in vivo inducer: Cmax/F2 >0.5 criterion; for Assigned classification CYP1A2: PHH;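 as to Assigned classification CYP1A2: code 1 means positive inducer and 0 means non-inducer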
CYP2B6 [5] = experiment: CYP2B6 enzyme induction assay in cryopreserved primary human hepatocytes (PHH); assay type: in vitro ADME; conditions: for Assigned classification CYP2B6: PHH;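 as to Assigned classification CYP2B6: code 1 means positive inducer and 0 means non-inducer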
CYP1A2 [6] = conditions: cited from earlier work; for CYP1A2 induction in vivo: human, ref Andersson, 1996
[7] = cited from earlier work
CYP = CYP isoforms induced; ref Abadie et al. (2009), Richert et al. (2010), Preissner et al. (2010), Hoffmann et al. (2014); cited from earlier work
CYP3A4 [8] = conditions: cited from earlier work
CYP3A4 [9] = experiment: CYP3A4 enzyme induction assay in cryopreserved primary human hepatocytes (PHH); conditions: for Assigned classification CYP3A4: PHH
[10] = human in vivo, CYP named without remark = induced, ref references in the cell, Washington University database, Hoffmann et al. (2014), Pelkonen et al. (2008), Hukkanen et al. (2012)

Prediction in vivo inducer (CYP1A2 [1]; CYP1A2, HepaRG cells): No
Prediction in vivo inducer (CYP1A2 [1]; CYP1A2, HepaRG cells, listed as omeprazole): non-inducer
F2 (CYP1A2 [1]; CYP1A2, HepaRG cells, in vitro concentration producing 2-fold induction): 12.9 µM
Induction in vitro (CYP1A2 [1]; CYP1A2, HepaRG cells, positive in one batch in each of the three laboratories): Yes
Assigned classification CYP1A2 (CYP1A2 [1]; Lab 1, batch 20): 1
Assigned classification CYP1A2 (CYP1A2 [1]; Lab 1, batch 35): 1
Assigned classification CYP1A2 (CYP1A2 [1]; Lab 1, batch 36): 1
Assigned classification CYP1A2 (CYP1A2 [1]; Lab 2, batch 20): 1
Assigned classification CYP1A2 (CYP1A2 [1]; Lab 2, batch 35): 1
Assigned classification CYP1A2 (CYP1A2 [1]; Lab 2, batch 36): 1
Assigned classification CYP1A2 (CYP1A2 [1]; Lab 3, batch 20): 1
Assigned classification CYP1A2 (CYP1A2 [1]; Lab 3, batch 35): 1
Assigned classification CYP1A2 (CYP1A2 [1]; Lab 3, batch 36): 1
Prediction in vivo inducer (CYP2B6 [2]; CYP2B6, HepaRG cells): No
Prediction in vivo inducer (CYP2B6 [2]; CYP2B6, HepaRG cells, listed as omeprazole): predicted as a non-inducer
Induction in vitro (CYP2B6 [2]; CYP2B6, HepaRG cells, positive in one batch in each of the three laboratories): No
Assigned classification CYP2B6 (CYP2B6 [2]; Lab 1, batch 20): 0
Assigned classification CYP2B6 (CYP2B6 [2]; Lab 1, batch 35): 0
Assigned classification CYP2B6 (CYP2B6 [2]; Lab 1, batch 36): 0
Assigned classification CYP2B6 (CYP2B6 [2]; Lab 2, batch 20): 0
Assigned classification CYP2B6 (CYP2B6 [2]; Lab 2, batch 35): 0
Assigned classification CYP2B6 (CYP2B6 [2]; Lab 2, batch 36): 1
Assigned classification CYP2B6 (CYP2B6 [2]; Lab 3, batch 20): 1
Assigned classification CYP2B6 (CYP2B6 [2]; Lab 3, batch 35): 0
Assigned classification CYP2B6 (CYP2B6 [2]; Lab 3, batch 36): 0
Induction in vitro (CYP3A4 [3]; CYP3A4, HepaRG cells): No
Prediction in vivo inducer (CYP3A4 [3]; CYP3A4, HepaRG cells): No
Prediction in vivo inducer (CYP3A4 [3]; CYP3A4, HepaRG cells, Cmax/F2 >0.5 criterion): non-inducer
Assigned classification CYP3A4 (CYP3A4 [3]; Lab 1, batch 20): 0
Assigned classification CYP3A4 (CYP3A4 [3]; Lab 1, batch 35): 0
Assigned classification CYP3A4 (CYP3A4 [3]; Lab 1, batch 36): 0
Assigned classification CYP3A4 (CYP3A4 [3]; Lab 2, batch 20): 0
Assigned classification CYP3A4 (CYP3A4 [3]; Lab 2, batch 35): 0
Assigned classification CYP3A4 (CYP3A4 [3]; Lab 2, batch 36): 0
Assigned classification CYP3A4 (CYP3A4 [3]; Lab 3, batch 20): 0
Assigned classification CYP3A4 (CYP3A4 [3]; Lab 3, batch 35): 0
Assigned classification CYP3A4 (CYP3A4 [3]; Lab 3, batch 36): 0
Prediction in vivo inducer (CYP1A2 [4]; CYP1A2, PHH): No
Prediction in vivo inducer (CYP1A2 [4]; CYP1A2, PHH, listed as omeprazole): non-inducer
F2 (CYP1A2 [4]; CYP1A2, PHH, in vitro concentration producing 2-fold induction): 38.6 to 118 µM
Induction in vitro (CYP1A2 [4]; CYP1A2, PHH, positive in one donor in each of the three laboratories): Yes
Assigned classification CYP1A2 (CYP1A2 [4]; Lab 1, batch 0 6 A): 1
Assigned classification CYP1A2 (CYP1A2 [4]; Lab 1, batch 4 0 8): 1
Assigned classification CYP1A2 (CYP1A2 [4]; Lab 1, batch 8 0 8): 1
Assigned classification CYP1A2 (CYP1A2 [4]; Lab 2, batch 0 6 A): 1
Assigned classification CYP1A2 (CYP1A2 [4]; Lab 2, batch 4 0 8): 1
Assigned classification CYP1A2 (CYP1A2 [4]; Lab 2, batch 8 0 8): 1
Assigned classification CYP1A2 (CYP1A2 [4]; Lab 3, batch 0 6 A): 1
Assigned classification CYP1A2 (CYP1A2 [4]; Lab 3, batch 4 0 8): 1
Assigned classification CYP1A2 (CYP1A2 [4]; Lab 3, batch 8 0 8): 1
F2 (CYP2B6 [5]; CYP2B6, PHH): 38.6 to 116 µM
Induction in vitro (CYP2B6 [5]; CYP2B6, PHH): Yes
Prediction in vivo inducer (CYP2B6 [5]; CYP2B6, PHH): No
Prediction in vivo inducer (CYP2B6 [5]; CYP2B6, PHH, Cmax/F2 >0.5 criterion): non-inducer
Assigned classification CYP2B6 (CYP2B6 [5]; Lab 1, batch 0 6 A): 1
Assigned classification CYP2B6 (CYP2B6 [5]; Lab 1, batch 4 0 8): 1
Assigned classification CYP2B6 (CYP2B6 [5]; Lab 1, batch 8 0 8): 0
Assigned classification CYP2B6 (CYP2B6 [5]; Lab 2, batch 0 6 A): 1
Assigned classification CYP2B6 (CYP2B6 [5]; Lab 2, batch 4 0 8): 0
Assigned classification CYP2B6 (CYP2B6 [5]; Lab 2, batch 8 0 8): 0
Assigned classification CYP2B6 (CYP2B6 [5]; Lab 3, batch 0 6 A): 1
Assigned classification CYP2B6 (CYP2B6 [5]; Lab 3, batch 4 0 8): 1
Assigned classification CYP2B6 (CYP2B6 [5]; Lab 3, batch 8 0 8): 1
F2 (CYP3A4 [9]; CYP3A4, PHH): 38.7 to 117 µM
Induction in vitro (CYP3A4 [9]; CYP3A4, PHH): Yes
Prediction in vivo inducer (CYP3A4 [9]; CYP3A4, PHH): No
Prediction in vivo inducer (CYP3A4 [9]; CYP3A4, PHH, Cmax/F2 >0.5 criterion): non-inducer
Assigned classification CYP3A4 (CYP3A4 [9]; Lab 1, batch 0 6 A): 1
Assigned classification CYP3A4 (CYP3A4 [9]; Lab 1, batch 4 0 8): 0
Assigned classification CYP3A4 (CYP3A4 [9]; Lab 1, batch 8 0 8): 1
Assigned classification CYP3A4 (CYP3A4 [9]; Lab 2, batch 0 6 A): 1
Assigned classification CYP3A4 (CYP3A4 [9]; Lab 2, batch 4 0 8): 0
Assigned classification CYP3A4 (CYP3A4 [9]; Lab 2, batch 8 0 8): 0
Assigned classification CYP3A4 (CYP3A4 [9]; Lab 3, batch 0 6 A): 1
Assigned classification CYP3A4 (CYP3A4 [9]; Lab 3, batch 4 0 8): 0
Assigned classification CYP3A4 (CYP3A4 [9]; Lab 3, batch 8 0 8): 1
SMILES: COc1ccc2[nH]c([S+]([O-])Cc3ncc(C)c(OC)c3C)nc2c1 (stereo not shown) [Omeprazole]
Induction in vivo (CYP1A2 [6]; CYP1A2, human, ref Table 1): No
CYP induction in vivo literature reference: CYP1A2 (CYP1A2 [6]; [10]): NOT induced at clinically used doses
CYP1A2 induction in vivo (CYP1A2 [6]; 120 mg doses or poor metabolizers (40 mg dose)): weak inducer
CYP1A2 induction in vivo (CYP1A2 [6]; normal doses (20-40 mg)): not a CYP1A2 inducer
Cmax ([7]; human in vivo plasma concentration, normal dose): 680 to 3500 nM
Cmax ([7]; human in vivo, normal dose (Table 10)): 680 to 3500 nM
CYP induction in vitro (human hepatocytes) (CYP): CYP1A2, CYP2B6, CYP3A4
Induction in vivo (CYP3A4 [8]; CYP3A4, human in vivo reference classification (Table 11)): No
CYP induction in vivo literature reference: CYP3A4 (CYP3A4 [8]; [10]): NOT induced
